The values below come from patent US20050281848A1, “Oleaginous ointments comprising two solubilized bioactive agents for the treatment of psoriasis” (GALDERMA S.A., priority 2004, published 2005).

Common to all, as to type: physicochemical
Data set [1] can be described thus: Chemical stability of the actives in Composition 2. The procedure: The compositions of the invention are found particularly effective in conserving satisfactory chemical stability of active principles which are sensitive to oxidation, to water and to aqueous media in general. The term “satisfactory chemical stability” refers to a composition which over a period of at least 3 months, respectively at ambient temperature and at 40° C.:
has an active principles content of at least 80%, in particular at least 90% and more particularly at least 95% of the initial weight content.

The nature of data set [2]: Stability of calcitriol in Miglyol 812 (HPLC assay against a reference). As to conditions: for Calcitriol content, T0 taken as 100%: calcitriol 30 ppm in Miglyol 812, 0.4% BHT, under nitrogen. The procedure: The stability of calcitriol was evaluated in the following two oil solvents: Miglyol 812 and Cetiol SN. a) Stability of Calcitriol in Miglyol 812 (Caprylic and 20 Capric Triglycerides): A solution is prepared of calcitriol 30 ppm in qs 100% of Miglyol 812 in the presence of 0.4% of BHT (antioxidant), kept under nitrogen. The initial time (TO) is taken as 100%.

The nature of data set [3]: Stability of calcitriol in Cetiol SN (HPLC assay against a reference). The following applies: for Calcitriol content, T0 taken as 100%: calcitriol 30 ppm in Cetiol SN, 0.4% BHT, under nitrogen. As to the method: b) Stability of Calcitriol in Cetiol SN (Cetearyl Isononanoate): A solution is prepared of calcitriol 30 ppm in qs 100% of Cetiol SN in the presence of 0.4% of BHT and kept under nitrogen. The initial time (TO) is taken as 100%.

For the compound `CCC(=O)O[C@]1(C(=O)CCl)[C@@H](C)C[C@H]2[C@@H]3CCC4=CC(=O)C=C[C@]4(C)[C@@]3(F)[C@@H](O)C[C@@]21C` [CLOBETASOL PROPIONATE, clobetasol 17-propionate], the “Chemical stability: content of the active” value is “PROPIONATE: 97.3%” in data set [1] (T0, AT); “PROPIONATE: 92.3” in data set [1] (T15 d, 40° C.); “PROPIONATE: 95.2” in data set [1] (T15 d, AT).
With `C=C1/C(=C\C=C2/CCC[C@]3(C)[C@@H]([C@H](C)CCCC(C)(C)O)CC[C@@H]23)C[C@@H](O)C[C@@H]1O` [calcitriol], the “Calcitriol content, T0 taken as 100%” value in data set [2] (+4° C., T2 weeks) was found to be 98.2%; in data set [2] (+4° C., T4 weeks) it was 105.2%; in data set [2] (+40° C., T2 weeks), 93.1%; in data set [2] (+40° C., T4 weeks), 95.0%; in data set [2] (ambient temperature, T2 weeks) it was 95.8%; in data set [2] (ambient temperature, T4 weeks) it was 98.0%. In addition, the “Calcitriol content, T0 taken as 100%” value was 103.7% in data set [3] (+4° C., T2 weeks); 97.9% in data set [3] (+4° C., T4 weeks); 99.4% in data set [3] (+40° C., T2 weeks); 98.1% in data set [3] (+40° C., T4 weeks); 99.6% in data set [3] (AT, T2 weeks); 98.7% in data set [3] (AT, T4 weeks). The Stability in solution result in data set [2] (in caprylic/capric triglyceride, 1 month) is reported as “stable”; in data set [3] (in cetearyl isononanoate, 1 month) it was “stable”. In addition, the “Chemical stability: content of the active” value in data set [1] (T0, AT) is on record as “CALCITRIOL: 97.6%”; in data set [1] (T15 d, 40° C.) it was “CALCITRIOL: 86.8”; in data set [1] (T15 d, AT), “CALCITRIOL: 95.1”.
